Several values for one entry are separate records, joined by “and”; a condition that tells them apart may be missing. Equal entries are not always repeated. Where two headings read alike, the source gives them in different places.
Experiments:
[1] = not given; remark: listed apart in the source

## O=C1NCCCOc2ccc(F)cc2[C@H]2CCCN2c2ccn3ncc1c3n2
From CCOC(=O)c1cnn2ccc(N3CCC[C@@H]3c3cc(F)ccc3OCCCN)nc12, amide bond, 14-membered ring, DIEA, EtOH, 230.0 mM, 200.0 °C, 16.0 h
  ring closure, isolated yield: 50%

## O=C1NCCCc2ncc(F)cc2[C@H]2CCCN2c2ccn3ncc1c3n2
From NCCCc1ncc(F)cc1[C@H]1CCCN1c1ccn2ncc(C(=O)O)c2n1, amide bond, 13-membered ring, HATU/DIEA, DMF, 8.4 mM, 3.0 h
  ring closure, isolated yield: 39%

## NCCCOc1ccc(F)cc1[C@H]1CCCN1c1ccn2ncc(CO)c2n1
The molecule shown is the open-chain precursor, amine bond, 14-membered ring, PS-PPh3/CCl4, DCM, 26.0 mM, 25.0 °C
  ring closure, isolated yield: 57.5%

## O=C1NC[C@H](O)COc2ccc(F)cc2C2CC(F)(F)CN2c2ccn3ncc1c3n2 (stereo partly shown)
From O=C(NC[C@H](O)CCl)c1cnn2ccc(N3CC(F)(F)CC3c3cc(F)ccc3O)nc12, ether bond, 14-membered ring, Cs2CO3, DMF, 20.0 mM, 85.0 °C, 0.5 h
  ring closure, isolated yield: 20% and 24%

## O=C1NCCCCn2cc(F)cc(c2=O)[C@H]2CCCN2c2ccn3ncc1c3n2
Other bond, 15-membered ring
  ring closure, isolated yield: 6%

## O=C1NC[C@H](O)COc2ccc(F)cc2[C@H]2C[C@@H](O)CN2c2ccn3ncc1c3n2
From O=C(NC[C@H](O)CCl)c1cnn2ccc(N3CC(O)C[C@@H]3c3cc(F)ccc3O)nc12, ether bond, 14-membered ring, Cs2CO3, DMF, 21.6 mM, 85.0 °C, 0.5 h
  ring closure, isolated yield: 16.2%

## COC(=O)c1cnn2ccc(N3CCC[C@@H]3c3cc(F)cnc3CCC(C)(C)NC(=O)OC(C)(C)C)nc12
The molecule shown is the open-chain precursor, amide bond, 13-membered ring, EDCI/HOBt/TEA, DMF, 39.4 mM, 45.0 °C, 3 steps
  ring closure, isolated yield: 48.3%

## O=C1OCCOc2ncc(F)cc2[C@H]2CCCN2c2ccn3ncc1c3n2
[1]; from O=C(OCCCl)c1cnn2ccc(N3CCC[C@@H]3c3cc(F)c[nH]c3=O)nc12, ether bond, Cs2CO3, DMF, 22.2 mM, 90.0 °C, 16.0 h
  ring closure, yield of all isomers: 22%

## O=C1NC[C@H](O)Cn2cc(F)cc(c2=O)[C@H]2CCCN2c2ccn3ncc1c3n2
[1]; from O=C(NC[C@H](O)CCl)c1cnn2ccc(N3CCC[C@@H]3c3cc(F)c[nH]c3=O)nc12, amine bond, Cs2CO3, DMF, […], 85.0 °C, 2.0 h
  ring closure, yield of all isomers: 12%

## Fc1ccc2c(c1)[C@H]1CCCN1c1ccn3ncc(c3n1)CNCCO2
From NCCOc1ccc(F)cc1[C@H]1CCCN1c1ccn2ncc(C=O)c2n1, amine bond, 13-membered ring, Me4NBH(OAc)3, DCM, 8.4 mM, 25.0 °C, 16.0 h
  ring closure, isolated yield: 21.6%

## O=C1Nc2ncccc2COc2ncc(F)cc2[C@H]2CCCN2c2ccn3ncc1c3n2
From O=C(Nc1ncccc1CCl)c1cnn2ccc(N3CCC[C@@H]3c3cc(F)cnc3O)nc12, ether bond, 14-membered ring, Cs2CO3, DMF, 84.8 mM, 60.0 °C, 4.0 h, with chain assembly
  ring closure, isolated yield: 2.2%

## O=C1NCCCOc2ncc(F)cc2[C@H]2CCCN2c2ccn3ncc1c3n2
From O=C(NCCCCl)c1cnn2ccc(N3CCC[C@@H]3c3cc(F)cnc3O)nc12, ether bond, 14-membered ring, Cs2CO3, DMF, […], 85.0 °C, 16.0 h
  ring closure, isolated yield: 44%

## O=C1NCCCn2cc(F)cc(c2=O)[C@H]2CCCN2c2ccn3ncc1c3n2
[1]; from NCCCn1cc(F)cc([C@H]2CCCN2c2ccn3ncc(C(=O)O)c3n2)c1=O, amide bond, EDCI/HOBt, DCM, 26.4 mM, 25.0 °C, 6.0 h
  ring closure, yield of all isomers: 39%

From patent US9750744
